Key:
[1] = log P by HPLC on a reversed-phase column (C18), EEC Directive 79/831 Annex V.A8; type: physicochemical; details: for chromatographic logP: reversed-phase C18 HPLC column, printed after the preparation step, method not restated
Method: In table 1, the log P values were determined in accordance with EEC Directive 79/831 Annex V.A8 by HPLC (High Performance Liquid Chromatography) on a reversed-phase column (C18), using the method described below:
Temperature: 40° C.; Mobile phases: 0.1% aqueous formic acid and acetonitrile; linear gradient from 10% acetonitrile to 90% acetonitrile.
Calibration was carried out using unbranched alkan-2-ones (comprising 3 to 16 carbon atoms) with known log P values (determination of the log P values by the retention times using linear interpolation between two successive alkanones). lambda-max-values were determined using UV-spectra from 200 nm to 400 nm and the peak values of the chromatographic signals.

Puccinia triticina = assay: in vivo preventive Puccinia triticina test (wheat); details: 8 days after inoculation
Excerpt: (§1) A synergistic effect of fungicides is always present when the fungicidal activity of the active compound combinations exceeds the total of the activities of the active compounds when applied individually. The expected activity for a given combination of two active compounds can be calculated as follows (cf. Colby, S. R., “Calculating Synergistic and Antagonistic Responses of Herbicide Combinations”, Weeds 1967, 15, 20-22): • If • X is the efficacy when active compound A is applied at an application rate of m ppm (or g/ha), • Y is the efficacy when active compound B is applied at an application rate of n ppm (or g/ha), • E is the efficacy when the active compounds A and B are applied at application rates of m and n ppm (or g/ha), respectively, and • then
(§2) The degree of efficacy, expressed in % is denoted. 0% means an efficacy which corresponds to that of the control while an efficacy of 100% means that no disease is observed.
(§3) Solvent: 49 parts by weight of N,N-dimethylacetamide
(§4) Emulsifier: 1 part by weight of alkylaryl polyglycol ether
(§5) To produce a suitable preparation of active compound, 1 part by weight of active compound or active compound combination is mixed with the stated amounts of solvent and emulsifier, and the concentrate is diluted with water to the desired concentration.
(§6) To test for preventive activity, young plants are sprayed with the preparation of active compound or active compound combination at the stated rate of application.
After the spray coating has been dried, the plants are sprayed with a spore suspension of Puccinia triticina. The plants remain for 48 hours in an incubation cabinet at approximately 20° C. and a relative atmospheric humidity of approximately 100%.
The plants are placed in the greenhouse at a temperature of approximately 20° C. and a relative atmospheric humidity of approximately 80%.
(§7) The test is evaluated 8 days after the inoculation. 0% means an efficacy which corresponds to that of the untreated control, while an efficacy of 100% means that no disease is observed.

Septoria tritici [2] = assay: in vivo preventive Septoria tritici test (wheat); details: 21 days after inoculation
Excerpt: as §1, §2, §3, §4
To produce a suitable preparation of active compound, 1 part by weight of active compound or active compound combination is mixed with the stated amounts of solvent and emulsifier, and the concentrate is diluted with water to the desired concentration. […]
The test is evaluated 21 days after the inoculation. […]

Leptosphaeria nodorum = assay: in vitro-test Leptosphaeria nodorum (microtiter plate, growth by extinction at 620 nm); type: cell-based; details: 2.5 ppm a.i., 3-5 days incubation
Excerpt: A synergistic effect of fungicides is always present when the fungicidal activity of the active compound combinations exceeds the total of the activities of the active compounds when applied individually. The expected activity for a given combination of two active compounds can be calculated as follows (cf. Colby, S. R., “Calculating Synergistic and Antagonistic Responses of Herbicide Combinations”, Weeds 1967, 15, 20-22): • If • X is the efficacy when active compound A is applied at an application rate of m ppm (or g/ha), • Y is the efficacy when active compound B is applied at an application rate of n ppm (or g/ha), • E is the efficacy when the active compounds A and B are applied at application rates of m and n ppm (or g/ha), respectively, and • then […]
The resulting concentrations of the test compounds or compound combinations in the microtiter wells are such as 50, 10, 2 and 0.4 ppm. […] With the aid of a photometer the extinction in all wells is measured at the wavelength of 620 nm. […]
At the end of the incubation time the growth of the test organisms is measured again photometrically at the wavelength of 620 nm. […] 0% efficacy means, the difference between the two extinction values is equal or even higher than of the untreated control, 100% efficacy means, no growth of the test organism is detected

Pyrenophora teres = assay: in vivo preventive Pyrenophora teres test (barley); details: 8 days after inoculation
Excerpt: as §1, §2, §3, §4, §5, §6
After the spray coating has been dried, the plants are sprayed with a spore suspension of Pyrenophora teres. The plants remain for 48 hours in an incubation cabinet at approximately 20° C. and a relative atmospheric humidity of approximately 100%. The plants are placed in the greenhouse at a temperature of approximately 20° C. and a relative atmospheric humidity of approximately 80%.
as §7

[3] = tested on: Blumeria graminis f.sp. hordei; assay: in vivo preventive Blumeria test (barley); details: 7 days after inoculation
Excerpt: as §1, §2, §3, §4, §5
To test for preventive activity, young plants are sprayed with the preparation of active compound or active compound combination at the stated rate of application. After the spray coating has been dried, the plants are dusted with spores of Blumeria graminis f.sp. hordei.
The plants are placed in the greenhouse at a temperature of approximately 18° C. and a relative atmospheric humidity of approximately 80% to promote the development of mildew pustules.
The test is evaluated 7 days after the inoculation. 0% means an efficacy which corresponds to that of the untreated control, while an efficacy of 100% means that no disease is observed.

Septoria tritici [4] = assay: in vitro-test Septoria tritici (microtiter plate, growth by extinction at 620 nm); type: cell-based
Excerpt: as §1
Wells of 96-well microtiter plates are filled with 10 μl of a solution of the test compounds or compound combinations in methanol together with the emulsifier alkylaryl polyglycol ether. Thereafter, the solvent is evaporated in a hood. At the next step, into each well 100 μl of liquid potato dextrose medium is given, that has been amended with an appropriate concentration of spores or mycelium suspension of the test fungus.
The resulting concentrations of the test compounds or compound combinations in the microtiter wells are such as 50, 10, 2 and 0.4 ppm. The resulting concentration of the emulsifier in all wells is constantly 300 ppm. With the aid of a photometer the extinction in all wells is measured at the wavelength of 620 nm.
The microtiter plates are then transferred for 3-5 days onto a shaker at 20° C. and 85% relative humidity.
At the end of the incubation time the growth of the test organisms is measured again photometrically at the wavelength of 620 nm. The difference between the two extinctions values (taken before and after incubation) is proportional to the growth of the test organism. 0% efficacy means, the difference between the two extinction values is equal or even higher than of the untreated control, 100% efficacy means, no growth of the test organism is detected

[5] = Table B1, 30 ppm a.i., wheat, preventive
[6] = 0.1 ppm a.i., 3-5 days incubation

Cc1ccc(S(=O)(=O)n2cc(F)c(N)nc2=O)cc1 [5-fluoro-4-imino-1-(p-tolylsulfonyl)pyrimidin-2-one]
chromatographic logP [1]: 1.45

Cc1ccc(S(=O)(=O)n2cc(F)c(=N)n(C)c2=O)cc1 [(B1), 5-fluoro-4-imino-3-methyl-1-[(4-methylphenyl)sulfonyl]-3,4-dihydropyrimidin-2(1H)-one]
Efficacy in % found (Puccinia triticina; [5]): 0%
chromatographic logP [1]: 1.26
Efficacy in % found (Septoria tritici [2]; 30 ppm a.i.): 0%

CC(C)C(O)(Cn1cncn1)c1ccc(Oc2ccc(Cl)cc2)cc1C(F)(F)F (centres unmarked) [(B2), 2-[4-(4-chlorophenoxy)-2-(trifluoromethyl)phenyl]-3-methyl-1-(1H-1,2,4-triazol-1-yl)butan-2-ol]
Efficacy in % found (Puccinia triticina; Table B2, 30 ppm a.i.): 0%
Efficacy in % found (Puccinia triticina; Table B2, 50 ppm a.i.): 10%
Efficacy in % found (Puccinia triticina; Table B2, 100 ppm a.i.): 30%
Efficacy in % found (Puccinia triticina; Table B2, 200 ppm a.i.): 40%
Efficacy in % found (Leptosphaeria nodorum): 1%
Efficacy in % found (Pyrenophora teres; 50 ppm a.i.): 22%
Efficacy in % found (Pyrenophora teres; 60 ppm a.i.): 44%
Efficacy in % found (Pyrenophora teres; 100 ppm a.i.): 56%
Efficacy in % found ([3]; 30 ppm a.i.): 0%
Efficacy in % found ([3]; 50 ppm a.i.): 30%
Efficacy in % found ([3]; 60 ppm a.i.): 60%
Efficacy in % found ([3]; 100 ppm a.i.): 70%
Efficacy in % found (Septoria tritici [4]; [6]): 0%
Efficacy in % found (Septoria tritici [4]; 0.3 ppm a.i.): 6%
Efficacy in % found (Septoria tritici [4]; 0.6 ppm a.i.): 0%

CC(C)c1ccc(Cl)cc1CN(C(=O)c1c(C(F)F)nn(C)c1F)C1CC1 [Compound A5, N-(5-chloro-2-isopropylbenzyl)-N-cyclopropyl-3-(difluoromethyl)-5-fluoro-1-methyl-1H-pyrazole-4-carboxamide]
Efficacy in % found (Puccinia triticina; [5]): 75%
Efficacy in % found (Puccinia triticina; Table B2, 5 ppm a.i.): 30%
Efficacy in % found (Puccinia triticina; Table B2, 10 ppm a.i.): 40%
Efficacy in % found (Puccinia triticina; Table B2, 20 ppm a.i., wheat, preventive): 70%
Efficacy in % found (Leptosphaeria nodorum): 36%
Efficacy in % found (Septoria tritici [2]; 10 ppm a.i.): 29%
Efficacy in % found (Pyrenophora teres; 5 ppm a.i.): 44%
Efficacy in % found (Pyrenophora teres; 10 ppm a.i., barley, preventive): 67%
Efficacy in % found ([3]; 5 ppm a.i.): 0%
Efficacy in % found ([3]; 10 ppm a.i.): 20%
Efficacy in % found ([3]; 20 ppm a.i., barley, preventive): 40%
Efficacy in % found (Septoria tritici [4]; [6]): 65%

N-cyclopropyl-3-(difluoromethyl)-5-fluoro-N-(2-isopropylbenzyl)-1-methyl-1H-pyrazole-4-carbothio-amide [Compound A20]
logP [1]: 4.36

— patent publication US20190159452A1, “ACTIVE COMPOUND COMBINATIONS COMPRISING A (THIO)CARBOXAMIDE DERIVATIVE AND A FUNGICIDAL COMPOUND” (BAYER CROPSCIENCE AKTIENGESELLSCHAFT, priority 2015, published 2019)
